Laboratory results as given in the NIST ThermoML archive (doi:10.1016/j.fluid.2019.01.025).

Assay: xn = mol fraction of the nth substance listed
Details: for viscosity / mass density: 91.2 kPa, Liquid; for viscosity: Concentric cylinders viscometry; for mass density: Vibrating tube method; for surface tension liquid-gas: Ring tensiometer

C[C@H](O)C(=O)O [(S)-2-hydroxypropanoic acid] + C[N+](C)(C)CCO.[Cl-]
x2 = 0.5
Details | mass density [kg/m3] | surface tension liquid-gas [mN/m] | viscosity [mPa·s]
293 K | 1150 | – | 309
298 K | 1150 | 42.87 | –
303 K | 1150 | – | 151
308 K | 1140 | – | –
313 K | 1140 | – | 101
318 K | 1140 | – | –
323 K | 1130 | – | 59
333 K | – | – | 35
343 K | – | – | 34
353 K | – | – | 25

C[C@H](O)C(=O)O [(S)-2-hydroxypropanoic acid] + O=C[C@H](O)[C@@H](O)[C@H](O)[C@H](O)CO
x1 = 0.833
Details | mass density [kg/m3] | surface tension liquid-gas [mN/m] | viscosity [mPa·s]
293 K | 1280 | – | 335
298 K | 1270 | 37.42 | –
303 K | 1270 | – | 161
308 K | 1270 | – | –
313 K | 1260 | – | 79
318 K | 1260 | – | –
323 K | 1250 | – | 34
333 K | – | – | 18
343 K | – | – | 16
353 K | – | – | 13
